# Assay results from US10800791B2, “Triazole ACC inhibitors and uses thereof” (Gilead Apollo, LLC, priority 2015, dated 2020).
# Like-named read-outs stand apart in the source and are kept apart here.
# Key:
# [1] = tested on: Diplodia maydis (Dm); experiment: Growth inhibition assay of fungal pathogens, Dm; format: cell-based; conditions: Stenocarpella maydis, 48 h
# In short: (§1)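 Inhibition percentages reflect 48 h OD600 and visual scores relative to a 2% DMSO control. Test concentrations were 50, 10, 2 ppm or 2, 0.4, 0.08 ppm final, applied to spores in 17% V8 medium.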
# [2] = tested on: C. albicans; experiment: Antifungal Activity Assay (broth microtiter MIC), C. albicans; format: cell-based, Candida albicans; conditions: Candida albicans, ATCC90028, 48 h
# In short: (§2)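 CLSI M27-A3 microdilution; RPMI 1640+MOPS; 2.5×10^3 CFU/mL final inoculum; cultures from Sabouraud dextrose agar, 35° C overnight; compound working solution 128 μg/mL from 1 mg/mL DMSO stock; visual MIC at 48 h vs growth control.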
# [3] = tested on: Septoria tritici (St); experiment: Growth inhibition assay of fungal pathogens, St; format: cell-based; conditions: Zymoseptoria tritici, 48 h
# In short: as §1
# [4] = tested on: C. krusei; experiment: Antifungal Activity Assay (broth microtiter MIC), C. krusei; format: cell-based, Candida krusei; conditions: Pichia kudriavzevii, ATCC6258, 48 h
# In short: as §2
# [5] = tested on: Phytophthora capsici (Pc); experiment: Growth inhibition assay of fungal pathogens, Pc; format: cell-based; conditions: 48 h
# In short: as §1
# [6] = tested on: Fusarium virguliforme (Fv); experiment: Growth inhibition assay of fungal pathogens, Fv; format: cell-based; conditions: 48 h
# In short: as §1
# [7] = tested on: Collectotrichum graminicola (Cg); experiment: Growth inhibition assay of fungal pathogens, Cg; format: cell-based; conditions: 48 h
# In short: as §1
# [8] = tested on: Botrtyis cinerea (Bc); experiment: Growth inhibition assay of fungal pathogens, Bc; format: cell-based; conditions: 48 h
# In short: as §1
# [9] = molecular target: fungal (fACC2) (UniProt Q00955); conditions: read-out: fACC2 (in vitro ACC2 Inhibition Assay, IC50), ADP-Glo, 5 nM ACC2, 20 μM ATP, 20 μM acetyl-CoA
# Sequence of fungal (fACC2) (Q00955 whole entry): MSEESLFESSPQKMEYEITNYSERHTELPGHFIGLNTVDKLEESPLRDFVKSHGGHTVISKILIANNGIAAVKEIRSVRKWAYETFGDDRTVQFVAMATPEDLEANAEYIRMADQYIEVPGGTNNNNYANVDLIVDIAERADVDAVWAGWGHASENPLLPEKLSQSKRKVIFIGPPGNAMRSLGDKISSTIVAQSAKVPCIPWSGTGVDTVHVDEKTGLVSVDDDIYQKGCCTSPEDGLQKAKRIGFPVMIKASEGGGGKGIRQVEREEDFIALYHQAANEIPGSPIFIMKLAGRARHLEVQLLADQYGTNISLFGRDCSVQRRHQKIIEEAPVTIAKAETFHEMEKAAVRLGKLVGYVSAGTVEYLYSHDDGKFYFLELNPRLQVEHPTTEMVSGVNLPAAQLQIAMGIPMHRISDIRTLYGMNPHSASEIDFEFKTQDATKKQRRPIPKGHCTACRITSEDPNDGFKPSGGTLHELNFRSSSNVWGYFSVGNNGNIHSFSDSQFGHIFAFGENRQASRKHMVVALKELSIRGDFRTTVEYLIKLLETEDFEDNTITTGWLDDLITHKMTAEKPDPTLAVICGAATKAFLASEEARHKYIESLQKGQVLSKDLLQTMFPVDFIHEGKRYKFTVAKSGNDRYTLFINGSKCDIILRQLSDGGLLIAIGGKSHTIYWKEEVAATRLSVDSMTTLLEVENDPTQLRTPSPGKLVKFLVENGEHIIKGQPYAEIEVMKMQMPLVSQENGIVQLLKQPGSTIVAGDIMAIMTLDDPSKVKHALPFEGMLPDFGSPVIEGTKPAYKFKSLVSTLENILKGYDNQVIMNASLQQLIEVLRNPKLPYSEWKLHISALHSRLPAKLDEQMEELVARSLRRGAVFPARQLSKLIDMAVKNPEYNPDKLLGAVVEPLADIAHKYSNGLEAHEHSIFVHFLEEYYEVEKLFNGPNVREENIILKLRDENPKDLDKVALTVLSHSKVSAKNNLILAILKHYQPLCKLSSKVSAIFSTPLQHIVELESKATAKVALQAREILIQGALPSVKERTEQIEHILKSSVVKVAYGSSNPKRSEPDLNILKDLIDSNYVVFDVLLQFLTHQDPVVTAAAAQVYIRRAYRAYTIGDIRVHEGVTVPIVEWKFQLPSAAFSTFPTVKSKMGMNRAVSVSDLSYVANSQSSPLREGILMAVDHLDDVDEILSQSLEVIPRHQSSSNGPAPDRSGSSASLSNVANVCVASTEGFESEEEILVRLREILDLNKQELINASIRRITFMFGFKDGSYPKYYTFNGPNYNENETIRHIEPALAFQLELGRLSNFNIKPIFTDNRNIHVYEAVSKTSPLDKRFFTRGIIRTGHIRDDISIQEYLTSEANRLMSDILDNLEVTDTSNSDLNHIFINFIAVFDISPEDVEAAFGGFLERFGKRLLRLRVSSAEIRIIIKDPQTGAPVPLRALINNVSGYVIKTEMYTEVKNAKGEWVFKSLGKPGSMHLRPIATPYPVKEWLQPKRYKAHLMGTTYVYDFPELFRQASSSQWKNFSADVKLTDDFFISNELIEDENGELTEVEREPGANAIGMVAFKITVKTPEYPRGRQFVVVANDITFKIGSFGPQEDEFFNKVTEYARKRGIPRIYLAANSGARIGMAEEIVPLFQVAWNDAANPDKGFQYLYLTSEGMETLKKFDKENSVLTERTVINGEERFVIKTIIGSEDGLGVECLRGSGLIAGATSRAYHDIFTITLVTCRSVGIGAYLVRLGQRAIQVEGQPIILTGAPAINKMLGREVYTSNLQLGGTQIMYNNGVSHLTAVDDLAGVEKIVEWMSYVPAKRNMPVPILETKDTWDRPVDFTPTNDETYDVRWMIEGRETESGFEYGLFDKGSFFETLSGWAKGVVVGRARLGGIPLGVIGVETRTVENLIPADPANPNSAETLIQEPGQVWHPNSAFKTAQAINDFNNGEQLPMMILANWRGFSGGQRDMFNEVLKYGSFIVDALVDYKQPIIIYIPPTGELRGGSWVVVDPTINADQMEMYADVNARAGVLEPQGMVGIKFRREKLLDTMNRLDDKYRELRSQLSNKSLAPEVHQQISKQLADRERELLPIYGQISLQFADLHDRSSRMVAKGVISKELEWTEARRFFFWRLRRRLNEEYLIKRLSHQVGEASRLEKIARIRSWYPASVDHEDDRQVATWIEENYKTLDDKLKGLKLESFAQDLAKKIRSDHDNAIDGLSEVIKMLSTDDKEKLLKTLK
# [10] = tested on: C. parapsilosis; experiment: Antifungal Activity Assay (broth microtiter MIC), C. parapsilosis; format: cell-based, Candida parapsilosis; conditions: Lodderomyces parapsilosis, ATCC22019, 48 h
# In short: as §2
# [11] = tested on: Fusarium moniliforme (Fm); experiment: Growth inhibition assay of fungal pathogens, Fm; format: cell-based; conditions: for IC90: Fusarium verticillioides, 48 h, read-out: Concentration at 90% Inhibition Fm
# In short: as §1
# [12] = Diplodia maydis, growth inhibition at 48 hours vs 2% DMSO control, read-out: Concentration at 90% Inhibition Dm
# [13] = Diplodia maydis, growth inhibition vs 2% DMSO control at 48 hours, read-out: Concentration at 90% Inhibition Dm
# [14] = Table 3a, ATCC 90028, 3 replicates, MIC recorded at 48 h, read-out: MIC, C. albicans ATCC 90028
# [15] = Table 3b (additional results), ATCC 90028, 3 replicates, MIC recorded at 48 h, read-out: MIC, C. albicans ATCC 90028
# [16] = Septoria tritici, growth inhibition at 48 hours vs 2% DMSO control, read-out: Concentration at 90% Inhibition St
# [17] = Septoria tritici, growth inhibition vs 2% DMSO control at 48 hours, read-out: Concentration at 90% Inhibition St
# [18] = Table 3a, ATCC 6258, 3 replicates, MIC recorded at 48 h, read-out: MIC, C. krusei ATCC 6258
# [19] = Table 3b (additional results), ATCC 6258, 3 replicates, MIC recorded at 48 h, read-out: MIC, C. krusei ATCC 6258
# [20] = growth inhibition at 48 hours vs 2% DMSO control, read-out: Concentration at 90% Inhibition Pc
# [21] = growth inhibition vs 2% DMSO control at 48 hours, read-out: Concentration at 90% Inhibition Pc
# [22] = growth inhibition at 48 hours vs 2% DMSO control, read-out: Concentration at 90% Inhibition Fv
# [23] = growth inhibition vs 2% DMSO control at 48 hours, read-out: Concentration at 90% Inhibition Fv
# [24] = Collectotrichum graminicola, growth inhibition at 48 hours vs 2% DMSO control, read-out: Concentration at 90% Inhibition Cg
# [25] = Collectotrichum graminicola, growth inhibition vs 2% DMSO control at 48 hours, read-out: Concentration at 90% Inhibition Cg
# [26] = Botrtyis cinerea, growth inhibition at 48 hours vs 2% DMSO control, read-out: Concentration at 90% Inhibition Bc
# [27] = Botrtyis cinerea, growth inhibition vs 2% DMSO control at 48 hours, read-out: Concentration at 90% Inhibition Bc
# [28] = Table 3a, ATCC 22019, 3 replicates, MIC recorded at 48 h, read-out: MIC, C. parapsilosis ATCC 22019
# [29] = Table 3b (additional results), ATCC 22019, 3 replicates, MIC recorded at 48 h, read-out: MIC, C. parapsilosis ATCC 22019
# [30] = Fusarium moniliforme, growth inhibition at 48 hours vs 2% DMSO control
# [31] = Fusarium moniliforme, growth inhibition vs 2% DMSO control at 48 hours
Compound,"IC90 [1, 12]","IC90 [1, 13]","MIC [2, 14]","MIC [2, 15]","IC90 [3, 16]","IC90 [3, 17]","MIC [4, 18]","MIC [4, 19]","IC90 [5, 20]","IC90 [5, 21]","IC90 [6, 22]","IC90 [6, 23]","IC90 [7, 24]","IC90 [7, 25]","IC90 [8, 26]","IC90 [8, 27]",IC50 ([9]; Table 2a),"IC50 ([9]; Table 2b, additional results)","MIC [10, 28]","MIC [10, 29]",other results
"Cc1c(-n2nccn2)sc2c1c(=O)n(C(C)(C)C(=O)NC(C)C)c(=O)n2C[C@H](OC(C)C)c1cc(F)ccc1OCCO [Compound I-53, (R)-2-(1-(2-(5-fluoro-2-(2-hydroxyethoxy)phenyl)-2-isopropoxyethyl)-5-methyl-2,4-dioxo-6-(2H-1,2,3-triazol-2-yl)-1,4-dihydrothieno[2,3-d]pyrimidin-3(2H)-yl)-N-isopropyl-2-methylpropanamide]",0.4 µg/mL,0.4 µg/mL,0.25 to 1 µg/mL,0.25 to 1 µg/mL,> 50 µg/mL,> 50 µg/mL,0.25 to 1 µg/mL,0.06 to 0.249 µg/mL,> 50 µg/mL,> 50 µg/mL,0.4 µg/mL,0.4 µg/mL,0.4 µg/mL,0.4 µg/mL,0.4 µg/mL,0.4 µg/mL,1 to 5 nM,1 to 5 nM,0.25 to 1 µg/mL,1.01 to 2 µg/mL,"IC90 [11, 30]: 0.08 µg/mL; IC90 [11, 31]: 0.08 µg/mL"
"COCCOc1ccc(F)cc1[C@H](Cn1c(=O)n(C(C)(C)C(=O)NC(C)C)c(=O)c2c(C)c(-n3nccn3)sc21)OC(C)C [Compound I-54, (R)-2-(1-(2-(5-fluoro-2-(2-methoxyethoxy)phenyl)-2-isopropoxyethyl)-5-methyl-2,4-dioxo-6-(2H-1,2,3-triazol-2-yl)-1,4-dihydrothieno[2,3-d]pyrimidin-3(2H)-yl)-N-isopropyl-2-methylpropanamide]",0.08 µg/mL,0.08 µg/mL,0.25 to 1 µg/mL,0.25 to 1 µg/mL,> 50 µg/mL,> 50 µg/mL,0.25 to 1 µg/mL,0.25 to 1 µg/mL,> 50 µg/mL,> 50 µg/mL,0.4 µg/mL,0.4 µg/mL,0.4 µg/mL,0.4 µg/mL,0.4 µg/mL,0.4 µg/mL,1 to 5 nM,1 to 5 nM,0.25 to 1 µg/mL,1.01 to 2 µg/mL,"IC90 [11, 30]: 0.08 µg/mL; IC90 [11, 31]: 0.08 µg/mL"
"Cc1c(-n2nccn2)sc2c1c(=O)n(C(C)(C)C(=O)NC(C)C)c(=O)n2C[C@H](OC(C)C)c1cc(F)ccc1OCC1COC1 [Compound I-55, (R)-2-(1-(2-(5-fluoro-2-(oxetan-3-ylmethoxy)phenyl)-2-isopropoxyethyl)-5-methyl-2,4-dioxo-6-(2H-1,2,3-triazol-2-yl)-1,4-dihydrothieno[2,3-d]pyrimidin-3(2H)-yl)-N-isopropyl-2-methylpropanamide]",0.4 µg/mL,0.4 µg/mL,0.25 to 1 µg/mL,1.01 to 2 µg/mL,> 50 µg/mL,> 50 µg/mL,0.25 to 1 µg/mL,1.01 to 2 µg/mL,> 50 µg/mL,> 50 µg/mL,0.4 µg/mL,0.4 µg/mL,0.4 µg/mL,0.4 µg/mL,0.4 µg/mL,0.4 µg/mL,1 to 5 nM,1 to 5 nM,0.25 to 1 µg/mL,1.01 to 2 µg/mL,"IC90 [11, 30]: 0.08 µg/mL; IC90 [11, 31]: 0.08 µg/mL"
"Cc1c(-n2nccn2)sc2c1c(=O)n(C(C)(C)C(=O)NC(C)C)c(=O)n2C[C@H](OC(C)C)c1cc(F)ccc1OCC#N [Compound I-56, (R)-2-(1-(2-(2-(cyanomethoxy)-5-fluorophenyl)-2-isopropoxyethyl)-5-methyl-2,4-dioxo-6-(2H-1,2,3-triazol-2-yl)-1,4-dihydrothieno[2,3-d]pyrimidin-3(2H)-yl)-N-isopropyl-2-methylpropanamide]",–,–,–,–,–,–,–,–,–,–,–,–,–,–,–,–,1 to 5 nM,1 to 5 nM,–,–,"IC90 ([1]; read-out: Concentration at 90% Inhibition Dm, Diplodia maydis, growth inhibition at 48 hours vs 2% DMSO control): 0.4 µg/mL; IC90 ([1]; read-out: Concentration at 90% Inhibition Dm, Diplodia maydis, growth inhibition vs 2% DMSO control at 48 hours): 0.4 µg/mL; MIC ([2]; read-out: MIC, C. albicans ATCC 90028, Table 3a, 3 replicates, MIC recorded at 48 h): 0.25 to 1 µg/mL; MIC ([2]; read-out: MIC, C. albicans ATCC 90028, Table 3b (additional results), 3 replicates, MIC recorded at 48 h): 1.01 to 2 µg/mL; IC90 ([3]; read-out: Concentration at 90% Inhibition St, Septoria tritici, growth inhibition at 48 hours vs 2% DMSO control): 10 µg/mL; IC90 ([3]; read-out: Concentration at 90% Inhibition St, Septoria tritici, growth inhibition vs 2% DMSO control at 48 hours): > 50 µg/mL; MIC ([4]; read-out: MIC, C. krusei ATCC 6258, Table 3a, 3 replicates, MIC recorded at 48 h): 0.06 to 0.24 µg/mL; MIC ([4]; read-out: MIC, C. krusei ATCC 6258, Table 3b (additional results), 3 replicates, MIC recorded at 48 h): 0.25 to 1 µg/mL; IC90 ([5]; read-out: Concentration at 90% Inhibition Pc, Phytophthora capsici, growth inhibition at 48 hours vs 2% DMSO control): > 50 µg/mL; IC90 ([5]; read-out: Concentration at 90% Inhibition Pc, Phytophthora capsici, growth inhibition vs 2% DMSO control at 48 hours): > 50 µg/mL; IC90 ([6]; read-out: Concentration at 90% Inhibition Fv, Fusarium virguliforme, growth inhibition at 48 hours vs 2% DMSO control): 0.08 µg/mL; IC90 ([6]; read-out: Concentration at 90% Inhibition Fv, Fusarium virguliforme, growth inhibition vs 2% DMSO control at 48 hours): 0.08 µg/mL; IC90 ([7]; read-out: Concentration at 90% Inhibition Cg, Collectotrichum graminicola, growth inhibition at 48 hours vs 2% DMSO control): 2 µg/mL; IC90 ([7]; read-out: Concentration at 90% Inhibition Cg, Collectotrichum graminicola, growth inhibition vs 2% DMSO control at 48 hours): 2 µg/mL; IC90 ([8]; read-out: Concentration at 90% Inhibition Bc, Botrtyis cinerea, growth inhibition at 48 hours vs 2% DMSO control): 0.4 µg/mL; IC90 ([8]; read-out: Concentration at 90% Inhibition Bc, Botrtyis cinerea, growth inhibition vs 2% DMSO control at 48 hours): 0.4 µg/mL; MIC ([10]; read-out: MIC, C. parapsilosis ATCC 22019, Table 3a, 3 replicates, MIC recorded at 48 h): 0.25 to 1 µg/mL; MIC ([10]; read-out: MIC, C. parapsilosis ATCC 22019, Table 3b (additional results), 3 replicates, MIC recorded at 48 h): 1.01 to 2 µg/mL; Concentration at 90% Inhibition Fm [11, 30]: AA (compound concentration of 0.08 ppm at 90% inhibition of fungal pathogens); IC90 [11]: 0.08 µg/mL"
